Measurements as given in article PMC11816975, “Bioactive Peptides from Milk Proteins with Antioxidant, Anti-Inflammatory, and Antihypertensive Activities” (Foods, 2025).
In brackets after ≈: the same amount, converted by molar mass. Blank lines part the entries; values can stand above or below the compound they belong to. Where no end group is shown, it is not given here.

Key:
in vitro = format: cell-based, murine; conditions: for IC50 at 24 h: mouse
Procedure: RAW 264.7 (ATCC TIB-71) murine macrophage-like cells were cultured in high-glucose Dulbecco’s modified Eagle’s medium (DMEM, Sigma-Aldrich) supplemented with 10% fetal bovine serum (FBS, Corning) and 1% penicillin/streptomycin (Corning). Cells were grown under standard culture conditions in a 5% CO2 incubator at 37 °C (MCO-170AC incubator; PHC Corporation, Tokyo, Japan), and were sub-cultured every two or three days when it was noticed that the cells had reached around 80% confluence. The assays were performed in cell passages from passages 9 to 21 to avoid phenotypic and genetic instability. Unless otherwise stated, all treatments were carried out with DMEM supplemented with 1% penicillin/streptomycin only (serum-free conditions). The cytotoxicity of the peptides towards RAW 264.7 cells was evaluated using the colorimetric 3-(4,5-dimethylthiazol-2-yl)-2,5-diphenyl tetrazolium bromide (MTT) assay. The assay was performed according to Mosmann, with a few modifications. Briefly, cells were seeded in a 96-well plate at a density of 2.5 × 10^3 cells per well and incubated for 24 h (5% CO2, 37 °C). After the incubation period, the medium was removed and replaced with different concentrations of the peptides’ aqueous solutions diluted in fresh FBS-free DMEM to the final concentrations of 1–0.005 mg/mL in each well. Following another 24 h incubation period, 10 µL of a 5 mg/mL stock solution of 3-(4,5-Dimethylthiazol-2-yl)-2,5-diphenyltetrazolium bromide (MTT; Alfa Aesar) was added to each well, and the plate was incubated for 3 h (5% CO2, 37 °C). Dimethyl sulfoxide (DMSO, Thermo Fisher Scientific) was used to dissolve the formazan crystals formed by the intracellular reduction of MTT. The absorbance was measured at a dual wavelength of 570/690 nm using a Multiskan SkyHigh microplate reader (Thermo Fisher Scientific). The percentage of viable cells was calculated and the concentration of each peptide able to inhibit 50% of cell viability (IC50) was determined. The experiments were carried out in three independent assays, and the results are shown as mean ± standard deviation (SD).

[1] = DPPH• radical scavenging assay; conditions: relative concentration to reduce 50% of initial DPPH•; mean ± SD, n = 3
Procedure: The free radical-scavenger activity was determined by the DPPH^• assay, according to Oliveira et al.. Briefly, in a 96 well-plate, 19.4 µL of aqueous solutions of the peptides at different concentrations (100–0.1 µg/mL) was added per well. Then, 175 µL of an ethanolic solution of 2,2-diphenyl-1-picrylhydrazyl radical (DPPH^•, Merck) was added to the wells ([…]—90 µM for final concentration in the experiment). The absorbance was read at 515 nm (Multiskan SkyHigh multiplate reader, Thermo Fisher Scientific) in kinetic mode for 60 min and at room temperature. The percentage of remaining DPPH^• was plotted against the peptides’ concentrations and the amount of test compounds necessary to decrease by 50% the initial concentration of DPPH (RIC50) was calculated (GraphPad Prism 9.4.0, GraphPad Software). Quercetin (100–0.1 µg/mL in ethanol) was used as a positive control.
The DPPH^• radical scavenging activity determines the ability of an antiradical compound to neutralize DPPH^• radical to its reduced form (DPPH-H) and is usually expressed as the concentration of the compound required to reduce the DPPH^• radical by 50% (IC₅₀). […]

[2] = test system: O2•− production in LPS-stimulated RAW 264.7 cells; assay: Intracellular superoxide production (NBT assay) in LPS-stimulated macrophages; format: cell-based, murine; conditions: at 10 µg/mL
Procedure: Considering the link between oxidative stress and inflammation, both the antioxidant and the anti-inflammatory potential of the selected peptides was determined in cellulo using macrophage-like cells (RAW 264.7 cell line) stimulated with lypopolysaccharides (LPSs) from Escherichia coli. […] In other words, RAW 264.7 cells are activated by foreign stimuli like, e.g., exposure to LPSs. This activation is initiated by the binding of LPSs to cell membrane receptors, which triggers signaling pathways that will result in the generation of proinflammatory mediators (e.g., nitric oxide) and cytokines such as interleukin (IL)-6, IL-8, tumor necrosis factor-alpha (TNF)-α [41, 42]. Since proinflammatory mediators are held in several metabolic pathways, including the production of reactive oxygen species (ROS), e.g., the radical-anion superoxide (O2^•−), LPS exposure also leads to oxidative stress. […]
The potential inhibitory effect of the peptides on superoxide radical (O2^−) by RAW 264.7 cells activated by LPS (1 µg/mL) was evaluated according to Mitra et al. with some modifications. […] The absorbance was measured in a microplate reader at a dual wavelength of 620/700 nm. […] The experiments were performed in three independent assays and the results were expressed as a percentage of O2^- production. […]

[3] = FRAP (ferric reducing antioxidant power) assay
Procedure: The antioxidant power of a given compound is not limited to its radical-scavenging activity. In fact, the ferric reducing antioxidant power (FRAP) assay, is a well-established test to measure a compound’s ability to act as a reductant in a colorimetric redox reaction, where ferric (Fe^3+) ions are reduced to the ferrous (Fe^2+) state in the acidic medium.
The ferric-reducing antioxidant power (FRAP) was determined using a FRAP kit (Sigma-Aldrich) with minor modifications to the manufacturer’s instructions. Briefly, in a 96-well plate, 5 µL of peptides’ aqueous solutions at different concentrations (50–0.05 µg/mL) was added per well. Then, 95 µL of the reaction cocktail (FRAP assay buffer, FeCl3 solution, and FRAP probe) was added to each well. The absorbance was measured at 594 nm in kinetic mode (Multiskan SkyHigh, Thermo Fisher Scientific) for 60 min, at 37 °C. A ferrous standard curve was plotted with Ferrous ammonium sulfate at 0, 4, 8, 12, 16, and 20 nmol/well, and the absorbances of each sample were compared to the standard curve. Quercetin (100–0.1 µg/mL in ethanol) was used as a positive control. All measurements were performed in three independent experiments. Data are shown as mean ± SD.

[4] = test system: NO production in LPS-stimulated RAW 264.7 cells; assay: Griess assay (nitric oxide production) in LPS-stimulated macrophages; format: cell-based, murine; conditions: at 10 µg/mL
Description: The Griess assay is a classical indirect method to measure the production of nitric oxide through the quantification of nitrite anions. As previously mentioned, NO is an inflammatory biomarker that can be produced when LPS-activated macrophages produce proinflammatory mediators and cytokines, which in turn elicit the production of reactive species like ROS and the expression/activity of relevant enzymes, including the nitric oxide synthase (NOS).
The Nitrite Assay Kit (Griess Reagent, Sigma-Aldrich) was used to determine the influence of peptide treatments on nitric oxide production by RAW 264.7 cells activated by LPS (1 µg/mL). To this end, peptide solutions at different concentrations (50–3.12 µg/mL—serial dilution) in an FBS-free medium were used. Briefly, 7 × 10^4 RAW 264.7 cells per well were seeded in a 96-well plate and incubated for 24 h (5% CO2, 37 °C). On the next day, the medium was removed and replaced with different concentrations of the peptides. After another 24 h incubation period (5% CO2, 37 °C), 50 µL of culture supernatant was transferred to a 96-well plate. […] The absorbance was measured at 540 nm using a microplate reader (Multiskan SkyHigh, Thermo Scientific) A nitrite standard curve was plotted with nitrite standards at 0, 2, 4, 8, and 10 nmol/well, and the absorbances of each sample were compared to the standard curve. […]

ACE-1 enzyme = ACE-1 enzyme (Homo sapiens, UniProt P12821); assay: ACE-1 inhibition assay (colorimetric kit)
Chain of ACE-1 enzyme (P12821 30-1306): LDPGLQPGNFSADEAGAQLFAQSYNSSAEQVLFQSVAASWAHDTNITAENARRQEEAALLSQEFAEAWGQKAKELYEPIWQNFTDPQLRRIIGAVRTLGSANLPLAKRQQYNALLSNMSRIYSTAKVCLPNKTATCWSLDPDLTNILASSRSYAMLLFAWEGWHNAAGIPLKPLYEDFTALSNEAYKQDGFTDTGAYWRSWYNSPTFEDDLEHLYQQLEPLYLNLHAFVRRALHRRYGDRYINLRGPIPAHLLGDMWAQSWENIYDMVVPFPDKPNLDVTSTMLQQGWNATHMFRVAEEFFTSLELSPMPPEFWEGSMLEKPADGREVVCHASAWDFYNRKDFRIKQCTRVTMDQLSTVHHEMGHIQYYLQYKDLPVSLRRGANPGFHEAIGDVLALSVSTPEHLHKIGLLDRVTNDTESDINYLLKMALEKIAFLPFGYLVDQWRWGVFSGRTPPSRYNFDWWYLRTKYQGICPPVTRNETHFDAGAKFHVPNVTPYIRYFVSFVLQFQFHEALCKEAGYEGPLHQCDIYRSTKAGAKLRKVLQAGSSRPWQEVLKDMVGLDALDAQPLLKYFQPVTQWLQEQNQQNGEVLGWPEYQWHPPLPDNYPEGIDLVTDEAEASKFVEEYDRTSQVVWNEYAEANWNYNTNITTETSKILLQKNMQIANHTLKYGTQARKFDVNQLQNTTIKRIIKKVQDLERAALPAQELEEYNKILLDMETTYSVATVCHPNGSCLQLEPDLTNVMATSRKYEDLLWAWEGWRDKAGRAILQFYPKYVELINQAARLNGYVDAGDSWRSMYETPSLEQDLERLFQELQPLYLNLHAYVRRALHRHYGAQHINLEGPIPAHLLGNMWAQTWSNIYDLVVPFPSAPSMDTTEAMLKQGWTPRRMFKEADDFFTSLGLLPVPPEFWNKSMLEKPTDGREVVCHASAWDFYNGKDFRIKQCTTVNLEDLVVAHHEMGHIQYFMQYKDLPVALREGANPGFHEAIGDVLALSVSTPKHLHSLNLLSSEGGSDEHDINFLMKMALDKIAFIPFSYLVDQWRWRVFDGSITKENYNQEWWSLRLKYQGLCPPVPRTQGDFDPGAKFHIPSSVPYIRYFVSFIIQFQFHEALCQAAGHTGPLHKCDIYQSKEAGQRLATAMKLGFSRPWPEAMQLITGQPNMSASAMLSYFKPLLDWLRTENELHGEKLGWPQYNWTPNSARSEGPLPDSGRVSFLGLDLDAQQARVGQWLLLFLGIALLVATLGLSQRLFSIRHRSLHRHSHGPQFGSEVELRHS
Procedure: Therefore, the ability of the LF-derived peptides to inhibit ACE-1 was evaluated.
The activity of the ACE-1 enzyme was measured using a colorimetric ACE-1 Inhibitor Screening Kit (Abcam) with minor modifications to the manufacturer’s instructions. Briefly, in a 96-well plate, 12.5 µL of peptide’s aqueous solutions at different concentrations (100–0.1 µg/mL) were added per well. Then, 20 µL of diluted ACE-1 enzyme solution was added to each well. The total volume of each well was adjusted to 100 µL and the plate was incubated at 37 °C for 15 min. After the incubation period, 25 µL of the reaction mixture (substrate mixture and ACE-1 assay buffer) were added to the samples, and the absorbance was read in kinetic mode at 345 nm for 60 min at 37 °C (Multiskan SkyHigh, Thermo Scientific). Captopril (22 ng/mL) was used as the positive control. The reaction inhibition percentage was calculated and the IC50 was determined (GraphPad Prism 9.4.0, GraphPad Software). The experiments were carried out in three independent assays and the results are expressed as mean ± SD.

ACE-1 = conditions: cited from earlier work
[5] = test system: spontaneously hypertensive rats; design: method as in PMID 16830788; conditions: cited from earlier work

Compound: O=c1c(O)c(-c2ccc(O)c(O)c2)oc2cc(O)cc(O)c12 [Quercetin]
- IC50 at 24 h (in vitro): 65 ± 2 mg/L (≈ 215 µM)
- DPPH Radical Scavenging Activity (RIC50 mol/mol DPPH) [1]: 0.09 ± 0.02 mol/mol DPPH
- reduction of O2•− production compared to the control (LPS +) [2]: about 25%
- FRAP (mM Ferrous Equivalents) ([3]; 0.05 µg/mL): 0.85 ± 0.25 mM Ferrous Equivalents
- FRAP (mM Ferrous Equivalents) ([3]; 0.5 µg/mL): 1.40 ± 0.23 mM Ferrous Equivalents
- FRAP (mM Ferrous Equivalents) ([3]; 5 µg/mL): 8.02 ± 0.57 mM Ferrous Equivalents
- FRAP (mM Ferrous Equivalents) ([3]; 50 µg/mL): 16.09 ± 0.87 mM Ferrous Equivalents
- NO levels in LPS-activated cells [4]: significantly reduce NO levels

Compound: LRPVAA
- ACE-1 inhibition in vitro (ACE-1): effective in inhibiting ACE-1 in vitro
- blood pressure [5]: reducing blood pressure

Compound: WKLLSKAQEKFGKNKSR-NH2 [bLF-268-284, WKLLSKAQEKFGKNKSR-NH2]
- IC50 (ACE-1 enzyme): > 48.8 µM

Now from value to compound:

- IC50 (in vitro): 135 ± 6 mg/L (≈ 67.7 µM)
- IC50 (ACE-1 enzyme): 31.6 µM
Compound: CSCC[C@H](NC(=O)[C@H](CCCNC(=N)N)NC(=O)[C@H](Cc1c[nH]c2ccccc12)NC(=O)[C@H](CCC(N)=O)NC(=O)[C@H](Cc1c[nH]c2ccccc12)NC(=O)[C@H](CCCNC(=N)N)NC(=O)[C@H](CCCNC(=N)N)NC(=O)[C@H](CS)NC(=O)[C@H](CCCCN)NC(=O)[C@@H](N)Cc1ccccc1)C(=O)N[C@@H](CCCCN)C(=O)N[C@@H](CCCCN)C(=O)N[C@@H](CC(C)C)C(=O)NCC(=O)N[C@@H](C)C(N)=O [bLF-17-31, FKCRRWQWRMKKLGA-NH2]

- IC50 (ACE-1 enzyme): 31.2 µM
Compound: AKCAKFQRNMKKVRG-NH2 [aLF-17-31, AKCAKFQRNMKKVRG-NH2]

- IC50 at 24 h (in vitro): 290 ± 5 mg/L
Compound: APRKNVRWCTI-NH2 [bLF-1-11, APRKNVRWCTI-NH2]

- IC50 at 24 h (in vitro): 355 ± 12 mg/L
- IC50 (ACE-1 enzyme): 57.5 µM
Compound: GRRRRSVQWCA-NH2 [rhLF-1-11, GRRRRSVQWCA-NH2]

- IC50 (ACE-1 enzyme): 25.6 µM
Compound: WNLLRQAQEKFGKDKSP-NH2 [nhLF-268-284, WNLLRQAQEKFGKDKSP-NH2]
